Assay results from ChEMBL document CHEMBL1150311, “4-Methyl-5-phenyl triazoles as selective inhibitors of 11beta-hydroxysteroid dehydrogenase type I” (Bioorg Med Chem Lett, 2008).

Legend:
[1] = target: T1, 11-beta-hydroxysteroid dehydrogenase type 2 (Mus musculus, UniProt P51661); assay: Inhibition of mouse 11beta HSD2
T1 sequence (P51661 whole entry): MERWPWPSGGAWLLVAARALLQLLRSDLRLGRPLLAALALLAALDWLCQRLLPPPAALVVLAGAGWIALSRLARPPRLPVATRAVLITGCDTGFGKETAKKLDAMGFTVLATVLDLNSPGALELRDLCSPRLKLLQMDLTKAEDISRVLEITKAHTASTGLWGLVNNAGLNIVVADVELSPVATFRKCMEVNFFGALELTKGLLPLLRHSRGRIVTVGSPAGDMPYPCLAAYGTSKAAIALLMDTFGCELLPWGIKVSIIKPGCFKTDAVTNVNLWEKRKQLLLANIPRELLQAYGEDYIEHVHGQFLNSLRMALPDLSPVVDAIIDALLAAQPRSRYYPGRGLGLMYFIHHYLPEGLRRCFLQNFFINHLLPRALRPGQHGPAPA

Mus musculus [2] = assay: Inhibition of [3H]cortisone to [3H]cortisol conversion in mouse at 10 mg/kg, po administered as single dose after 4 hrs; format: functional
Mus musculus [3] = assay: Inhibition of [3H]cortisone to [3H]cortisol conversion in mouse at 10 mg/kg, po administered as single dose after 1 hr; format: functional
[4] = target: 11-beta-hydroxysteroid dehydrogenase 1 (Homo sapiens, UniProt P28845); assay: Inhibition of human 11beta HSD1 by SPA assay
Sequence of 11-beta-hydroxysteroid dehydrogenase 1 (Homo sapiens, UniProt P28845) (P28845 whole entry): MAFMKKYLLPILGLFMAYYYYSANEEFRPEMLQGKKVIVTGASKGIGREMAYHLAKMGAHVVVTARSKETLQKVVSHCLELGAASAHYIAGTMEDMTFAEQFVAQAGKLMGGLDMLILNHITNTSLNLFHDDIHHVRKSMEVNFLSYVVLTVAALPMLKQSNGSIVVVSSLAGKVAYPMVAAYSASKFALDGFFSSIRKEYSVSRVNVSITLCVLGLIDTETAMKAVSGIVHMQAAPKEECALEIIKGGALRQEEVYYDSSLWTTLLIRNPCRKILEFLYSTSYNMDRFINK

[5] = target: T2, 11-beta-hydroxysteroid dehydrogenase type 2 (Homo sapiens, UniProt P80365); assay: Inhibition of human 11beta HSD2
T2 sequence (P80365 whole entry): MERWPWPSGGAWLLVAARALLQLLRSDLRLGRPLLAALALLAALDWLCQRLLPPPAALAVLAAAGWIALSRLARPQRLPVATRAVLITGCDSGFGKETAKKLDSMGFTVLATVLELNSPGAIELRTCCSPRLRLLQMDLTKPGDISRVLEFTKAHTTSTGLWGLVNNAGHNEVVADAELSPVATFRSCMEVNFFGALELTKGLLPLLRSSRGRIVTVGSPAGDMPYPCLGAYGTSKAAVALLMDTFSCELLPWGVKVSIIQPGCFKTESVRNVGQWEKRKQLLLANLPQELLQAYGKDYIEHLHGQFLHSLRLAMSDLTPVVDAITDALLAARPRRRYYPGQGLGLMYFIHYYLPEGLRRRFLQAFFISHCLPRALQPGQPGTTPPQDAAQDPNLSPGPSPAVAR

[6] = target: 11-beta-hydroxysteroid dehydrogenase 1 (Mus musculus, UniProt P50172); assay: Inhibition of mouse 11beta HSD1 by SPA assay
Sequence of 11-beta-hydroxysteroid dehydrogenase 1 (Mus musculus, UniProt P50172) (P50172 whole entry): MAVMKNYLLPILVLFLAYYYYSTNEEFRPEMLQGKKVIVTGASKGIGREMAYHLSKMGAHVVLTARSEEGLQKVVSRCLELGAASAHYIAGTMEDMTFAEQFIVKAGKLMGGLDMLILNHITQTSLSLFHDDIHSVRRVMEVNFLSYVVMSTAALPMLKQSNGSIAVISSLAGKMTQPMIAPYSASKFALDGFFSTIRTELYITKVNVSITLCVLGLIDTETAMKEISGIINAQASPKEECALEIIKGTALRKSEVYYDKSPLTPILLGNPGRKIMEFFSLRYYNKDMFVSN

Row | SMILES | IC50 [1] | inhibition in vivo at 10 mg/kg (Mus musculus [2]) | inhibition in vivo at 10 mg/kg (Mus musculus [3]) | IC50 [4] | IC50 [5] | IC50 [6]
1 | Cn1c(-c2ccc(OC3CC3)cc2)nnc1C1(c2ccc(Cl)cc2)CCC1 | > 4 µM | 95% | 95% | 0.01 µM | > 4 µM | 0.0022 µM
2 | Cn1c(-c2cccc(OC(F)(F)F)c2)nnc1C1(c2ccc(Cl)cc2)CCC1 | > 4 µM |  |  | 0.0022 µM | > 4 µM | 0.036 µM
3 | Cn1c(-c2ccc(-c3ccc(F)cc3)cc2)nnc1C1(c2ccc(Cl)cc2)CCC1 | > 4 µM |  |  | 0.011 µM | > 4 µM | 0.0091 µM
4 | Cn1c(-c2ccc(C(F)(F)F)cc2)nnc1C1(c2ccc(Cl)cc2)CCC1 | > 4 µM |  |  | 0.0093 µM | > 4 µM | 0.026 µM
5 | COc1ccc(-c2nnc(C3(c4ccc(Cl)cc4)CCC3)n2C)cc1F | > 4 µM | -1% | 10% | 0.003 µM | > 4 µM | 0.042 µM
6 | Cn1c(-c2ccccc2OC(F)(F)F)nnc1C1(c2ccc(Cl)cc2)CCC1 | > 4 µM | 44% | 59% | 0.0023 µM | > 4 µM | 0.0041 µM
7 | Clc1ccc(C2(c3nnc4n3CCCCCC4)CCC2)cc1 | > 4 µM |  |  | 0.0013 µM | > 4 µM | 
8 | Cn1c(-c2ccc(Oc3ccccc3)cc2)nnc1C1(c2ccc(Cl)cc2)CCC1 | > 4 µM |  |  | 0.026 µM | > 4 µM | 0.0037 µM
9 | Cn1c(-c2cccc(-c3ccccc3)c2)nnc1C1(c2ccc(Cl)cc2)CCC1 | > 4 µM | -2% | -2% | 0.0043 µM | > 4 µM | 0.056 µM
10 | Cn1c(-c2ccc(O)cc2)nnc1C1(c2ccc(Cl)cc2)CCC1 | > 4 µM | 10% | 17% | 0.00034 µM | > 4 µM | 0.019 µM
11 | Cn1c(-c2ccccc2)nnc1C12CC3CC(CC(C3)C1)C2 [FIG 1] | > 4 µM | 47% | 85% | 0.037 µM | > 4 µM | 0.109 µM
12 | Cn1c(-c2ccc(Cl)cc2Cl)nnc1C1(c2ccc(Cl)cc2)CCC1 | > 4 µM |  |  | 0.001 µM | > 4 µM | 0.013 µM
13 | Cn1c(-c2ccccc2F)nnc1C1(c2ccc(Cl)cc2)CCC1 | > 4 µM |  |  | 0.002 µM | > 4 µM | 0.021 µM
14 | CSc1nccn1-c1ccc(-c2nnc(C3(c4ccc(Cl)cc4)CCC3)n2C)c(Cl)c1 | > 4 µM |  |  | 0.0039 µM |  | 0.0039 µM
15 | Cn1c(-c2ccc(OC(F)(F)F)cc2)nnc1C1(c2ccc(Cl)cc2)CCC1 | > 4 µM | 27% | 64% | 0.013 µM | > 4 µM | 0.0069 µM
16 | Cn1c(-c2ccc(-n3cccc3)cc2)nnc1C1(c2ccc(Cl)cc2)CCC1 | > 4 µM | 28% | 41% | 0.003 µM | > 4 µM | 0.0054 µM
17 | Cn1c(-c2ccc(F)cc2)nnc1C1(c2ccc(Cl)cc2)CCC1 | > 4 µM |  |  | 0.0015 µM | > 4 µM | 0.101 µM
18 | Cn1c(-c2cccc(O)c2)nnc1C1(c2ccc(Cl)cc2)CCC1 | > 4 µM |  |  | 0.001 µM | > 4 µM | 0.019 µM

Row | SMILES | IC50 [1] | inhibition in vivo at 10 mg/kg (Mus musculus [2]) | inhibition in vivo at 10 mg/kg (Mus musculus [3]) | IC50 [4] | IC50 [5] | IC50 [6]
19 | Cn1c(-c2ccc(-c3nccs3)cc2)nnc1C1(c2ccc(Cl)cc2)CCC1 | > 4 µM | 67% | 92% | 0.044 µM | > 4 µM | 0.0031 µM
20 | Cn1c(-c2cccc(F)c2)nnc1C1(c2ccc(Cl)cc2)CCC1 | > 4 µM |  |  | 0.0022 µM | > 4 µM | 0.163 µM
21 | Cn1c(-c2ccc(C(C)(C)C)cc2)nnc1C1(c2ccc(Cl)cc2)CCC1 | > 4 µM |  |  | 0.014 µM | > 4 µM | 0.0018 µM
22 | COc1ccccc1-c1nnc(C2(c3ccc(Cl)cc3)CCC2)n1C | > 4 µM | 12% | 28% | 0.0027 µM | > 4 µM | 0.0078 µM
23 | C1CCc2nnc(C34CC5CC(CC(C5)C3)C4)n2CC1 | > 10 µM | 21% | 31% |  | > 3 µM | 
24 | Cn1c(-c2ccccc2O)nnc1C1(c2ccc(Cl)cc2)CCC1 | > 4 µM | -2% | -2% | 0.0018 µM | > 4 µM | 0.017 µM
25 | Cn1c(-c2ccc(I)cc2)nnc1C1(c2ccc(Cl)cc2)CCC1 | > 4 µM |  |  | 0.0038 µM | > 4 µM | 0.0082 µM
26 | Cn1c(-c2ccccc2Cl)nnc1C1(c2ccc(Cl)cc2)CCC1 | > 4 µM | 73% | 86% | 0.00028 µM | > 4 µM | 0.0035 µM
27 | Cc1ccccc1-c1nnc(C2(c3ccc(Cl)cc3)CCC2)n1C | > 4 µM | 1% | 9% | 0.005 µM | > 4 µM | 0.021 µM
28 | Cn1c(-c2ccc(Cc3ccccc3)cc2)nnc1C1(c2ccc(Cl)cc2)CCC1 | > 4 µM | -4% | 20% | 0.068 µM | > 4 µM | 0.018 µM
29 | Cn1c(-c2ccccc2)nnc1C1(c2ccc(Cl)cc2)CCC1 | > 4 µM | 29% | 47% | 0.0017 µM | > 4 µM | 0.052 µM
30 | Cn1c(-c2ccc(-c3ccccc3)cc2)nnc1C1(c2ccc(Cl)cc2)CCC1 | > 4 µM | 90% | 86% | 0.011 µM | > 4 µM | 0.004 µM
31 | Cn1c(-c2ccc(-n3ccnc3)cc2)nnc1C1(c2ccc(Cl)cc2)CCC1 | > 4 µM | 44% | 79% | 0.0035 µM | > 4 µM | 0.046 µM
32 | Cn1c(-c2ccc(Cl)cc2)nnc1C1(c2ccc(Cl)cc2)CCC1 | > 4 µM | 14% | 20% | 0.0027 µM | > 4 µM | 0.043 µM
33 | Cc1cn(-c2ccc(-c3nnc(C4(c5ccc(Cl)cc5)CCC4)n3C)c(Cl)c2)c(C)n1 | > 4 µM |  |  | 0.0069 µM |  | 0.0072 µM
34 | Cn1c(-c2ccccc2C(F)(F)F)nnc1C1(c2ccc(Cl)cc2)CCC1 | > 4 µM | 63% | 73% | 0.002 µM | > 4 µM | 0.004 µM
35 | Cn1c(-c2ccc(O)c(F)c2)nnc1C1(c2ccc(Cl)cc2)CCC1 | > 4 µM | 6% | 3% | 0.002 µM | > 4 µM | 0.061 µM
36 | Cc1nc2ccccc2n1-c1ccc(-c2nnc(C3(c4ccc(Cl)cc4)CCC3)n2C)c(Cl)c1 | > 4 µM |  |  | 0.012 µM |  | 0.057 µM
